The source made the active and inactive calls. How the calls were made is not given here.

Drawing on PubChem BioAssay AID1259407 (Chemical Carcinogenesis Research Information System (CCRIS), 2018), this text covers mutagenic call for 8 compounds.

The subject of this data set is CCRIS mutagenicity, Ames/micronucleus/aberration tests. In words: CCRIS mutagenicity studies.
[1] abbreviates: Test System: AMES SALMONELLA TYPHIMURIUM, Strain/Indicator: TA100, Metabolic Activation: NONE, Method: STANDARD PLATE.
Where [2] appears, read: Test System: AMES SALMONELLA TYPHIMURIUM, Strain/Indicator: TA98, Metabolic Activation: NONE, Method: PREINCUBATION
Setting [3] is: Test System: AMES SALMONELLA TYPHIMURIUM, Strain/Indicator: TA100, Metabolic Activation: NONE, Method: PREINCUBATION
[4] abbreviates: Test System: AMES SALMONELLA TYPHIMURIUM, Strain/Indicator: TA98, Metabolic Activation: NONE, Method: STANDARD PLATE.

For `FC(Cl)C(F)(F)F` (stereo unspecified), the mutagenic call by setting is: (Test System: AMES SALMONELLA TYPHIMURIUM, Strain/Indicator: TA97, Metabolic Activation: NONE, Method: VAPOR CHAMBER) “inactive; negative”; (Test System: AMES SALMONELLA TYPHIMURIUM, Strain/Indicator: TA97, Metabolic Activation: RAT LIVER S-9, Method: VAPOR CHAMBER) “inactive; negative”; (Test System: AMES SALMONELLA TYPHIMURIUM, Strain/Indicator: TA98, Metabolic Activation: NONE, Method: VAPOR CHAMBER) “inactive; negative”; (Test System: AMES SALMONELLA TYPHIMURIUM, Strain/Indicator: TA98, Metabolic Activation: RAT LIVER S-9, Method: VAPOR CHAMBER) “inactive; negative”; (Test System: AMES SALMONELLA TYPHIMURIUM, Strain/Indicator: TA100, Metabolic Activation: NONE, Method: VAPOR CHAMBER) “inactive; negative”; (Test System: AMES SALMONELLA TYPHIMURIUM, Strain/Indicator: TA100, Metabolic Activation: RAT LIVER S-9, Method: VAPOR CHAMBER) “inactive; negative”. Besides, the mutagenic call runs as follows: (Test System: AMES SALMONELLA TYPHIMURIUM, Strain/Indicator: TA1535, Metabolic Activation: NONE, Method: VAPOR CHAMBER) “inactive; negative”; (Test System: AMES SALMONELLA TYPHIMURIUM, Strain/Indicator: TA1535, Metabolic Activation: RAT LIVER S-9, Method: VAPOR CHAMBER) “inactive; negative”.
In the case of `Oc1cc(O)c2c(c1)O[C@H](c1ccc(O)c(O)c1)[C@H](O)C2`, the mutagenic call is “inactive; negative” (Test System: Ames Salmonella typhimurium, Strain/Indicator: TA102, Metabolic Activation: None, Method: Preincubation) and “inactive; negative” (Test System: Ames Salmonella typhimurium, Strain/Indicator: TA102, Metabolic Activation: Rat, Liver, S-9, Aroclor 1254 in 0.154 M KCl, Method: Preincubation).
As to `C1O[C@@H]1[C@H]1CO1`, the mutagenic call is “active; positive (structural changes)” (End Point: IN VITRO CHROMOSOMAL ABERRATIONS, Test System: HUMAN PERIPHERAL LYMPHOCYTES, Metabolic Activation: NONE, Method: FISH (CHROMOSOME PAINTING)); “inactive; positive (d 1 -2); positive at both dose levels on d 2 (negative by d 3)” (End Point: IN VIVO MICRONUCLEUS, Test System: PERIPHERAL BLOOD RETICULOCYTES, Species: MOUSE, Strain/Sex: BALB/C/MALE, Route: IP INJECTION, ONCE); “active; positive” (End Point: IN VIVO MICRONUCLEUS, Test System: SPERMATID, Species: RAT, Strain/Sex: SPRAGUE-DAWLEY/MALE, Route: IP INJECTION); “active; positive (at 30 mg at 3 d after exposure)” (End Point: IN VIVO MICRONUCLEUS, Test System: SPERMATIDS, Species: MOUSE, Strain/Sex: (102XC3H)F1/MALE, Route: IP INJECTION); “active; positive” (End Point: IN VIVO MICRONUCLEUS, Test System: SPERMATIDS, Species: MOUSE, Strain/Sex: BALB/C/MALE, Route: IP INJECTION); “active; positive” (End Point: IN VIVO MICRONUCLEUS, Test System: SPERMATIDS, Species: RAT, Strain/Sex: LEWIS/MALE, Route: IP INJECTION). Further, the mutagenic call reads like this: (End Point: IN VIVO MICRONUCLEUS, Test System: SPLENOCYTES, Species: MOUSE, Strain/Sex: (102XC3H)F1/MALE, Route: IP INJECTION) “active; positive”; (End Point: IN VIVO MICRONUCLEUS, Test System: SPLENOCYTES, Species: RAT, Strain/Sex: LEWIS/MALE, Route: IP INJECTION) “active; positive”; under setting [1], “active; positive”; (Test System: AMES SALMONELLA TYPHIMURIUM, Strain/Indicator: TA1535, Metabolic Activation: NONE, Method: STANDARD PLATE) “active; positive”; (Test System: CHINESE HAMSTER OVARY, Strain/Indicator: AS52/6-THIOGUANINE, Metabolic Activation: NONE) “active; positive”; (Test System: MOUSE LYMPHOMA, Strain/Indicator: L5178Y (TK+/TK-), Metabolic Activation: NONE, Method: SUSPENSION/PLATE) “active; positive”. For the same compound, the mutagenic call (Test System: MOUSE LYMPHOMA, Strain/Indicator: L5178Y (TK+/TK-), Metabolic Activation: RAT, LIVER, S-9, AROCLOR 1254, Method: SUSPENSION/PLATE) is “active; positive”; the mutagenic call (Test System: MOUSE LYMPHOMA, Strain/Indicator: L5178Y (TK+/TK-), Metabolic Activation: RAT, LIVER, S-9, Method: SUSPENSION/PLATE) is “active; positive”; the mutagenic call (Test System: UDS MOUSE SPERM CELLS, Strain/Indicator: THY INCORP, Metabolic Activation: IN VIVO, Method: LIQUID SCINTILLATION COUNTING) was “active; positive”.
Consider `O=[N+]([O-])c1ccc(NCCO)c(OCCO)c1`, for which the mutagenic call is, setting by setting: (Test System: AMES SALMONELLA TYPHIMURIUM, Strain/Indicator: TA98, Metabolic Activation: HAMSTER, LIVER, S-9, AROCLOR 1254 (10%), Method: PREINCUBATION) “active; positive”; under setting [2], “active; positive”; (Test System: AMES SALMONELLA TYPHIMURIUM, Strain/Indicator: TA98, Metabolic Activation: RAT, LIVER, S-9, AROCLOR 1254 (10%), Method: PREINCUBATION) “active; positive”; (Test System: AMES SALMONELLA TYPHIMURIUM, Strain/Indicator: TA100, Metabolic Activation: HAMSTER, LIVER, S-9, AROCLOR 1254 (10%), Method: PREINCUBATION) “active; positive”; under setting [3], “active; positive”; (Test System: AMES SALMONELLA TYPHIMURIUM, Strain/Indicator: TA100, Metabolic Activation: RAT, LIVER, S-9, AROCLOR 1254 (10%), Method: PREINCUBATION) “active; positive”. In addition, the mutagenic call runs as follows: (Test System: AMES SALMONELLA TYPHIMURIUM, Strain/Indicator: TA1535, Metabolic Activation: HAMSTER, LIVER, S-9, AROCLOR 1254 (10%), Method: PREINCUBATION) “inactive; negative”; (Test System: AMES SALMONELLA TYPHIMURIUM, Strain/Indicator: TA1535, Metabolic Activation: NONE, Method: PREINCUBATION) “active; positive”; (Test System: AMES SALMONELLA TYPHIMURIUM, Strain/Indicator: TA1535, Metabolic Activation: RAT, LIVER, S-9, AROCLOR 1254 (10%), Method: PREINCUBATION) “inactive; negative”; (Test System: AMES SALMONELLA TYPHIMURIUM, Strain/Indicator: TA1537, Metabolic Activation: HAMSTER, LIVER, S-9, AROCLOR 1254 (10%), Method: PREINCUBATION) “active; positive”; (Test System: AMES SALMONELLA TYPHIMURIUM, Strain/Indicator: TA1537, Metabolic Activation: NONE, Method: PREINCUBATION) “active; positive”; (Test System: AMES SALMONELLA TYPHIMURIUM, Strain/Indicator: TA1537, Metabolic Activation: RAT, LIVER, S-9, AROCLOR 1254 (10%), Method: PREINCUBATION) “active; positive”.
In the case of `N#Cc1ccc(CO)cc1`, the mutagenic call under setting [1] is “inactive; negative”.
For the compound `O=[N+]([O-])c1ccc2c(c1)Cc1cccc([N+](=O)[O-])c1-2`, the mutagenic call reads like this: (Test System: AMES SALMONELLA TYPHIMURIUM, Strain/Indicator: TA98, Metabolic Activation: HAMSTER, LIVER, S-9, AROCLOR 1254 (30%), Method: PREINCUBATION) “active; positive”; under setting [2], “active; positive”; (Test System: AMES SALMONELLA TYPHIMURIUM, Strain/Indicator: TA98, Metabolic Activation: RAT, LIVER, S-9, AROCLOR 1254 (30%), Method: PREINCUBATION) “active; positive”; (Test System: AMES SALMONELLA TYPHIMURIUM, Strain/Indicator: TA100, Metabolic Activation: HAMSTER, LIVER, S-9, AROCLOR 1254 (30%), Method: PREINCUBATION) “active; positive”; under setting [3], “active; positive”; (Test System: AMES SALMONELLA TYPHIMURIUM, Strain/Indicator: TA100, Metabolic Activation: RAT, LIVER, S-9, AROCLOR 1254 (30%), Method: PREINCUBATION) “active; positive”.
For the compound `O=Cc1ccc(COS(=O)(=O)O)o1`, the mutagenic call runs as follows: under setting [4], “inactive; negative”; under setting [1], “active; positive”; (Test System: AMES SALMONELLA TYPHIMURIUM, Strain/Indicator: TA104, Metabolic Activation: NONE, Method: PREINCUBATION) “active; positive”.
Regarding `Cn1c(N)nc2c3ccc(=O)[nH]c3ccc21`, the mutagenic call is, setting by setting: under setting [2], “active; positive”; under setting [4], “active; positive”; (Test System: AMES SALMONELLA TYPHIMURIUM, Strain/Indicator: TA98, Metabolic Activation: RAT, LIVER, S-9, AROCLOR 1254 (0.5-3 MG/ML), Method: PREINCUBATION) “active; positive”; (Test System: AMES SALMONELLA TYPHIMURIUM, Strain/Indicator: TA98, Metabolic Activation: RAT, LIVER, S-9, AROCLOR 1254, Method: STANDARD PLATE) “active; positive”.
